Patent publication US8778876B2, “Small-molecule inhibitors of Dengue and West Nile virus proteases” (The Board of Regents of the University of Texas System, priority 2011, dated 2014)
“Also recorded” adds a separate entry of the source. Read-outs that look alike come from different tables or passages of the source.

Experiments:
[1] = target: T1, Bovine pancreatic trypsin (Bos taurus, UniProt P00760); test: biochemical; type: biochemical
T1 construct: purchased Sigma Aldrich; host or cells: bovine pancreas
T1 sequence (P00760 24-246): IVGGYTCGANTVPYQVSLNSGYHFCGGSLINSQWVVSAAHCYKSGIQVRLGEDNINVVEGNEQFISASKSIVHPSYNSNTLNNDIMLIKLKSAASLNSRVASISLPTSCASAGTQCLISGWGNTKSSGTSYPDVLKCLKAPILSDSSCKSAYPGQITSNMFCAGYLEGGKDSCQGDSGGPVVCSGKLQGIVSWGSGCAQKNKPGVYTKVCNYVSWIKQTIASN

physchem = conditions: pH 9, aqueous with cosolvent or surfactant or cyclodextrin, kinetic from dmso stock
DEN2V NS2B-NS3pro [2] = target: T2, DEN2V NS2B-NS3pro (Dengue virus type 2, UniProt Q91H74); test: Preliminary DEN2V NS2B-NS3pro inhibition assay; type: biochemical, Dengue 2 virus; conditions: 100 nM protease, 100 μM Boc-GRR-AMC, 30 min at 25° C.; aprotinin at 100 μM
T2 sequence (Q91H74 entry or part of it, added parts left off): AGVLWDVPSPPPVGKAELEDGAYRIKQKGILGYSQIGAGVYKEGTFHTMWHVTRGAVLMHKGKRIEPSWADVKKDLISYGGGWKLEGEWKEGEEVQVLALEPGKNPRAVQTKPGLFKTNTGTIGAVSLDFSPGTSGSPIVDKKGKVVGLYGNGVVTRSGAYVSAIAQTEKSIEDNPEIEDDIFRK
T2 sequence (Q91H74 entry or part of it partner, added parts left off): as the sequence (Q91H74 entry or part of it, added parts left off) above

WNV NS2B-NS3pro = WNV NS2B-NS3pro (West Nile virus, UniProt P06935); test: Steady-state kinetics of inhibitors of WNV NS2B-NS3pro; type: biochemical
WNV NS2B-NS3pro, sequence (P06935 1502-1679 limits assumed): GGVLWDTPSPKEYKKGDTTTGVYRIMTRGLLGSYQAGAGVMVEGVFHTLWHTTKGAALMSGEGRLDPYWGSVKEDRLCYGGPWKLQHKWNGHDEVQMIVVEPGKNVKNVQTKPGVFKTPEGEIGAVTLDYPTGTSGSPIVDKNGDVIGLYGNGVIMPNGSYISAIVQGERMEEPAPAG
WNV NS2B-NS3pro, sequence (P06935 1424-1463 partner limits assumed): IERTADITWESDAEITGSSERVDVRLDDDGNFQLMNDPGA

DEN2V NS2B-NS3pro [3] = target: T2, DEN2V NS2B-NS3pro; test: Steady-state kinetics of inhibitors of DEN2V NS2B-NS3pro (Boc-GRR-AMC substrate, Dynafit); type: biochemical, Dengue 2 virus; conditions: for Mechanism: HTS-identified hits
DENV; WNV protease = type: biochemical, Dengue virus; West Nile virus
[4] = Ki1 (from biochemical protease inihibition experiments) West Nile virus NS2B-NS
[5] = DEN2V NS2B-NS3 Ki1, second series analogs
[6] = DEN2V NS2B-NS3 Ki2, second series analogs
[7] = Ki1 (from biochemical protease inihibition experiments) Dengue 2 virus NS2B-NS3
[8] = Table 1, DEN2V NS2B-NS3pro, read-out: Ki1
[9] = Table 1, DEN2V NS2B-NS3pro, read-out: Ki2
[10] = Table 2, WNV NS2B-NS3pro, read-out: Ki1
[11] = Table 2, WNV NS2B-NS3pro, read-out: Ki2

N=C(N)c1ccccc1 [Benzamidine, reference compound]
Mechanism (trypsin inhibition) [1]: competitive trypsin inhibitors

O=[N+]([O-])c1ccc(OP(=O)([O-])Oc2ccc([N+](=O)[O-])cc2)cc1.[Na+] [Compound 6A24]
solubility (physchem): < 10 µM

Nc1cccc2c1C(=O)c1ccccc1C2=O [Compound 6A25]
solubility (physchem): < 10 µM

Nc1ccc2c(c1)C(=O)c1ccccc1C2=O [Compound 6A27]
solubility (physchem): < 10 µM

Cc1ccc2c(c1)C(=O)c1ccccc1C2=O [Compound 6A28]
solubility (physchem): < 10 µM

O=c1[nH]c2cc([N+](=O)[O-])c([N+](=O)[O-])cc2[nH]c1=O [Compound 6A29]
solubility (physchem): < 10 µM

O=C1c2cccc(O)c2C(=O)c2cccc(O)c21 [Compound 6A30]
solubility (physchem): < 10 µM

Nc1ccc2c(c1[N+](=O)[O-])C(=O)c1ccccc1C2=O [Compound 6A35]
solubility (physchem): < 10 µM

O=[N+]([O-])c1cc([N+](=O)[O-])c2ccccc2c1[O-].[Na+] [Compound 6A40]
solubility (physchem): < 10 µM

Cc1cccc2c1C(=O)c1cccc([N+](=O)[O-])c1C2=O [Compound 6A41]
solubility (physchem): < 10 µM

Nc1ccc(N)c2c1C(=O)c1c(N)ccc(N)c1C2=O [Compound 6A42]
Inhibition of DEN2V NS2B-NS3pro in the preliminary inhibition assay (DEN2V NS2B-NS3pro [2]): significant inhibition
Mechanism (trypsin inhibition) [1]: mixed noncompetitive trypsin inhibitors; also recorded: inhibited both the DEN2V NS2B-NS3 protease and trypsin
Ki ([1]; Ki1 trypsin): 60 ± 13 µM
Ki ([1]; Ki2 trypsin): 167 ± 20 µM

COc1ccc(N)c2c1C(=O)c1ccccc1C2=O [Compound 6A46]
solubility (physchem): > 10 µM

O=C1c2ccc(O)cc2C(=O)c2c1ccc(O)c2O [Compound 6A47]
Inhibition of DEN2V NS2B-NS3pro in the preliminary inhibition assay (DEN2V NS2B-NS3pro [2]): significant inhibition
Mechanism (trypsin inhibition) [1]: mixed noncompetitive trypsin inhibitors; also recorded: inhibited both the DEN2V NS2B-NS3 protease and trypsin
Ki ([1]; Ki1 trypsin): 4 µM
Ki ([1]; read-out: Ki2 trypsin): 25 ± 3 µM
solubility (physchem): > 10 µM

CN/N=C1/c2ccccc2C(=O)c2c(O)ccc(O)c21 [Compound 6A48]
solubility (physchem): > 10 µM

O=Cc1ccc2c(c1)C(=O)c1ccccc1C2=O [Compound 6A50]
solubility (physchem): > 10 µM

Nc1ccc(O)c2ccccc12 [Compound 6A51]
solubility (physchem): > 10 µM

Nc1c(Br)cc(O)c2c1C(=O)c1ccccc1C2=O [Compound 6A53]
solubility (physchem): < 10 µM

Oc1ccc2cc3ccc(O)cc3c(O)c2c1 [Compound 6A60]
Trypsin Mechanism [1]: did not inhibit trypsin cleavage activity; also recorded: No inhibition
Ki (WNV NS2B-NS3pro; [4]): 11 µM
Ki (DEN2V NS2B-NS3pro [3]; [5]): 7 ± 5 µM
Ki (DEN2V NS2B-NS3pro [3]; [6]): 3 ± 1 µM
Ki (DEN2V NS2B-NS3pro [3]; [7]): 7 µM
DEN2V NS2B-NS3 Ki1 (DEN2V NS2B-NS3pro [3]; second series analogs): lowest Ki1 of all anthracene-based analogs
DEN2V NS2B-NS3 Mechanism (DEN2V NS2B-NS3pro [3]; second series analogs): Mixed
solubility (physchem): > 10 µM

O=C1c2ccc(O)c(O)c2C(=O)c2c(O)ccc(O)c21 [Compound 6A61]
Trypsin Mechanism [1]: did not inhibit trypsin; also recorded: No inhibition
Ki (WNV NS2B-NS3pro; [4]): 31 µM
Ki (DEN2V NS2B-NS3pro [3]; [5]): 72 ± 15 µM
Ki (DEN2V NS2B-NS3pro [3]; [6]): 10 ± 2 µM
Ki (DEN2V NS2B-NS3pro [3]; [7]): 72 µM
DEN2V NS2B-NS3 Mechanism (DEN2V NS2B-NS3pro [3]; second series analogs): Mixed
solubility (physchem): > 10 µM

O=c1ccc2[n+]([O-])c3ccc(O)cc3oc-2c1 [Compound 9A3]
Ki (WNV NS2B-NS3pro; [4]): 72 µM
Ki (DEN2V NS2B-NS3pro [3]; [7]): 82 µM

CN(C)c1ccc2nc3ccc(=O)cc-3sc2c1 [Compound 9A4]
Ki (WNV NS2B-NS3pro; [4]): 431 µM
Ki (DEN2V NS2B-NS3pro [3]; [7]): 359 µM

CCN(CC)c1ccc2nc3c4ccccc4c(=O)cc-3oc2c1 [Compound 9A6]
Ki (WNV NS2B-NS3pro; [4]): 47 µM
Ki (DEN2V NS2B-NS3pro [3]; [7]): 53 µM

O=[N+]([O-])c1ccc(/C=N/c2ccc(O)c3ccccc23)c([N+](=O)[O-])c1 [Compound 260]
Protease inhibited in Knock-down (DENV; WNV protease): DENV; WNV
Ki (WNV NS2B-NS3pro; WNpro Ki1): 14 µM
Ki (WNV NS2B-NS3pro; WNpro Ki2): 5 µM
Ki (DEN2V NS2B-NS3pro [3]; Denpro Ki1): 52 µM
Ki (DEN2V NS2B-NS3pro [3]; Denpro Ki2): 5 µM

O=C(Nc1ccc(O)c2ccccc12)c1ccc([N+](=O)[O-])cc1[N+](=O)[O-] [Compound 273]
Protease inhibited in Knock-down (DENV; WNV protease): DENV; WNV
Ki (WNV NS2B-NS3pro; WNpro Ki1): < 169 µM
Ki (WNV NS2B-NS3pro; WNpro Ki2): < 186 µM
Ki (DEN2V NS2B-NS3pro [3]; Denpro Ki1): < 223 µM

Oc1cc2ccc(/N=N/c3ccc4c(c3)OCO4)cc2cc1O [Compound 290]
Protease inhibited in Knock-down (DENV; WNV protease): DENV; WNV
Ki (WNV NS2B-NS3pro; WNpro Ki2): < 6 µM
Ki (DEN2V NS2B-NS3pro [3]; Denpro Ki2): < 8.5 µM

Oc1ccc2cc(/N=N/c3ccc4c(c3)OCO4)c(O)cc2c1 [Compound 292]
Protease inhibited in Knock-down (DENV; WNV protease): WNV

O=[N+]([O-])c1cc(/N=N/c2ccc3cc(O)c(O)cc3c2)ccc1O [Compound 293]
Protease inhibited in Knock-down (DENV; WNV protease): DENV
Ki (WNV NS2B-NS3pro; WNpro Ki2): 20 µM
Ki (DEN2V NS2B-NS3pro [3]; Denpro Ki1): 432 µM
Ki (DEN2V NS2B-NS3pro [3]; Denpro Ki2): 29 µM

Oc1ccc2c(/N=N/c3ccc4c(c3)OCO4)ccc(O)c2c1 [Compound 296]
Protease inhibited in Knock-down (DENV; WNV protease): DENV; WNV
Ki (WNV NS2B-NS3pro; WNpro Ki2): 116 µM
Ki (DEN2V NS2B-NS3pro [3]; Denpro Ki1): 215 µM
Ki (DEN2V NS2B-NS3pro [3]; Denpro Ki2): 62 µM

O=[N+]([O-])c1cc(/N=N/c2ccc(O)c3cc(O)ccc23)ccc1O [Compound 297]
Protease inhibited in Knock-down (DENV; WNV protease): DENV; WNV
Ki (WNV NS2B-NS3pro; WNpro Ki2): 61 µM
Ki (DEN2V NS2B-NS3pro [3]; Denpro Ki2): 85 µM

O=[N+]([O-])c1ccc(/N=N/c2ccc(O)c3cc(O)ccc23)c([N+](=O)[O-])c1 [Compound 298]
Protease inhibited in Knock-down (DENV; WNV protease): DENV; WNV
Ki (WNV NS2B-NS3pro; WNpro Ki1): 4 µM
Ki (WNV NS2B-NS3pro; WNpro Ki2): 2 µM
Ki (DEN2V NS2B-NS3pro [3]; Denpro Ki1): 40 µM
Ki (DEN2V NS2B-NS3pro [3]; Denpro Ki2): 4 µM

O=[N+]([O-])c1ccc(/N=N/c2ccc3cc(O)c(O)cc3c2)c(O)c1 [Compound 300]
Protease inhibited in Knock-down (DENV; WNV protease): DENV; WNV
Ki (WNV NS2B-NS3pro; WNpro Ki1): 3 µM
Ki (WNV NS2B-NS3pro; WNpro Ki2): 2 µM
Ki (DEN2V NS2B-NS3pro [3]; Denpro Ki1): 81 µM
Ki (DEN2V NS2B-NS3pro [3]; Denpro Ki2): 5 µM

Cc1ccc(O)c(/N=N/c2c(O)cc(O)c3ccccc23)c1 [Compound 301]
Protease inhibited in Knock-down (DENV; WNV protease): DENV; WNV

O=[N+]([O-])c1ccc(/N=N/c2c(O)cc(O)c3ccccc23)c(O)c1 [Compound 302]
Protease inhibited in Knock-down (DENV; WNV protease): DENV; WNV

CC(=O)Oc1cc2c(cc1OC(C)=O)[C@@H]1c3ccc(OC(C)=O)c(OC(C)=O)c3OC[C@]1(OC(C)=O)C2 [MS5, Haematoxylin pentaacetate]
Inhibition in single-point knock-down assays with either protease (DENV; WNV protease; compound incubated with cleavage buffer overnight (complete oxidation)): no observable inhibition
Mechanism (WNV NS2B-NS3pro; Table 2, WNV NS2B-NS3pro): Mixed
Mechanism (DEN2V NS2B-NS3pro [3]; Table 1, DEN2V NS2B-NS3pro): Mixed
Ki (DEN2V NS2B-NS3pro [3]; [8]): 16 ± 7 µM
Ki (DEN2V NS2B-NS3pro [3]; [9]): 5 ± 0.7 µM

CC[C@H](C)[C@H]1O[C@]2(CC[C@@H]1C)C[C@@H]1C[C@@H](C/C=C(\C)[C@@H](O[C@H]3C[C@H](OC)[C@@H](O[C@H]4C[C@H](OC)[C@@H](O)[C@H](C)O4)[C@H](C)O3)[C@@H](C)/C=C/C=C3\CO[C@@H]4[C@H](O)C(C)=C[C@@H](C(=O)O1)[C@]34O)O2 [MS21, Ivermectin, reference compound]
Mechanism (WNV NS2B-NS3pro; Table 2, WNV NS2B-NS3pro): Mixed
Ki (WNV NS2B-NS3pro; [10]): 55 ± 18 µM
Ki (WNV NS2B-NS3pro; [11]): 16 ± 4 µM
Mechanism (DEN2V NS2B-NS3pro [3]; Table 1, DEN2V NS2B-NS3pro): Mixed
Ki (DEN2V NS2B-NS3pro [3]; [8]): 79 ± 21 µM
Ki (DEN2V NS2B-NS3pro [3]; [9]): 35 ± 4 µM

Cc1cc(C(C)(C)CC(C)(C)C)ccc1OCCOCC[N+](C)(C)Cc1ccccc1.[Cl-] [MS22, Methylbenzethonium chloride, reference compound]
Mechanism (WNV NS2B-NS3pro; Table 2, WNV NS2B-NS3pro): Mixed
Ki (WNV NS2B-NS3pro; [10]): 141 ± 20 µM
Ki (WNV NS2B-NS3pro; [11]): 307 ± 80 µM
Mechanism (DEN2V NS2B-NS3pro [3]; Table 1, DEN2V NS2B-NS3pro): Mixed
Ki (DEN2V NS2B-NS3pro [3]; [8]): 322 ± 81 µM
Ki (DEN2V NS2B-NS3pro [3]; [9]): 160 ± 39 µM

CO[C@H]1C[C@H](O[C@@H]2/C(C)=C/C[C@@H]3C[C@@H](C[C@]4(CC[C@H](C)[C@@H](C5CCCCC5)O4)O3)OC(=O)[C@@H]3C=C(C)/C(=N/O)[C@H]4OC/C(=C\C=C\[C@@H]2C)[C@]43O)O[C@@H](C)[C@@H]1O [MS24, Selamectin, reference compound]
Ki (WNV NS2B-NS3pro; Ki1, Table 2, WNV NS2B-NS3pro): 15 ± 9 µM
Ki (WNV NS2B-NS3pro; Ki2, Table 2, WNV NS2B-NS3pro): 28 ± 6 µM
Mechanism (WNV NS2B-NS3pro; Table 2, WNV NS2B-NS3pro): Mixed
Ki (DEN2V NS2B-NS3pro [3]; Ki1, Table 1, DEN2V NS2B-NS3pro): 63 ± 18 µM
Ki (DEN2V NS2B-NS3pro [3]; Ki2, Table 1, DEN2V NS2B-NS3pro): 45 ± 8 µM
Mechanism (DEN2V NS2B-NS3pro [3]; Table 1, DEN2V NS2B-NS3pro): Mixed

aprotinin [reference compound]
Inhibition of DEN2V NS2B-NS3pro in the preliminary inhibition assay (DEN2V NS2B-NS3pro [2]): fluorescence levels that were similar to that of the “substrate alone” background control
